Data taken from US5041451A, “Tetrahydroisoquinoline and tetrahydrothieno derivatives” (Dr. Lo. Zambelletti SpA, priority 1988, dated 1991).
Where a name gives a salt, the structure may show the parent alone.

Legend:
[1] = tested on: mice (p-phenylquinone-induced abdominal writhing); assay: P-phenylquinone-induced abdominal writhing test in mice; assay type: in vivo, mouse (male Charles River, Swiss Strain); settings: Mus musculus, sc, 20 min; s.c., 20 min pretreatment; p-phenylquinone 2 mg/Kg i.p.; 8 min observation; data given for free base form; read-out: ANALGESIA MOUSE WRITHING ED50
Procedure: P-phenylquinone-induced Abdominal Writhinq Test in Mice
The methodology employed is based on that described by Sigmund et al, Proc. Soc. Exptl. Biol. 95, 729/1957, modified by Milne and Twomey, Agents and Actions, 10, 31/1980.
Male Charles River mice (Swiss Strain), 25-36 g body weight, are used. Animals are allowed food and water ad libitum and are randomized into groups of 10 prior to experimentation. Test compounds are dissolved in either distilled water or distilled water plus 0.1 M AMS, and administered by the subcutaneous route in a final volume of 10 ml/Kg. Control animals receive 10 ml/Kg of the appropriate vehicle alone. Following a pretreatment period of 20 min., mice are injected intraperitoneally with p-phenylquinone, 2 mg/Kg at 37° C. in a final volume of 10 mg/Kg. Next, the mice are placed, in a groups of 3, in a compartmented perspex box maintained at room temperature and are observed for a period of 8 min. During this period the number of abdominal writhing responses per animal are recorded where writhing consists of an intermittent contraction of the abdomen associated with hind leg extension.
The degree of antinociceptive protection afforded by the test compound is determined as the mean number of writhing responses observed in the treated group (T) expressed as a percentage of the mean number of writhing responses in the control group (C) according to the following formula:
[1-(T/C)]×100%=% graded protection.

[2] = tested on: mice (tail-flick, heat source reaction time); assay: Mouse tail-flick test; assay type: in vivo, mouse (male Charles River); settings: sc, 0.5 h, s.c., 30 min after dosing, percent number of mice doubling the initial time, data given for free base form, read-out: ANALGESIA MOUSE TAIL-FLICK ED50
Procedure: Mouse Tail-flick test (Modified from the procedure published by D Amour et al., J. Pharm. Exptl. Ther.72, 74/1941).
Male Charles River mice, average weight 26g, are used. Selection is carried out before beginning of experiments: only mice whose reaction time is less than 8 sec are used. They are randomly distributed into groups of 10 and dosed with compounds under test, with positive and negative controls being included.
Compounds under test are administered subcutaneously in isotonic saline in a volume of 20 ml. Kg^-1. 30 min later mice are placed again under heat source (Socrel apparatus) and reaction time is recorded.
The analgesic activity of the test compound is expressed as the percent number of mice doubling the initial time within a group. [formula]

In the case of O=C1CCCc2cc(CC(=O)N3CCc4sccc4C3CN3CCCCC3)ccc21 (single isomer, unassigned) [Example 5, (-)4-(piperidin-1-yl)methyl-5-(1-oxo-3,4-dihydro-(2H)-napht-6-yl)acetyl-4,5,6,7-tetrahydrothieno [3,2-c]pyridine L(+) tartrate], the ED50 [1] is reported as 0.009 mg/kg and the ED50 [2] is reported as 0.045 mg/kg.

With O=C1CCCc2cc(CC(=O)N3CCc4ccccc4C3CN3CCCC3)ccc21 (stereo not shown) [Example 1, 1-(pyrrolidin-1-yl)methyl-2-(1-oxo-3,4-dihydro-(2H)-napht-6-Yl)acetyl-1,2,3,4-tetrahydroisoquinoline hydrochloride] the ED50 [1] was 0.036 mg/kg and the ED50 [2] was 0.114 mg/kg.

Compound O=C1CCCc2cc(CC(=O)N3CCc4ccccc4C3CN3CCCCC3)ccc21 (stereo not shown) [Example 2, 1-(piperidin-1-yl)methyl-2-(1-oxo-3,4-dihydro-(2H)-napht-6-yl)acetyl-1,2,3,4-tetrahydroisoquinoline hydrochloride] has an ED50 [1] of 0.038 mg/kg and an ED50 [2] of 0.206 mg/kg.

Work on O=C1CCCc2cc(CC(=O)N3CCc4sccc4C3CN3CCCC3)ccc21 (stereo not shown) [Example 3, 4-(pyrrolidin-1-yl)methyl-5-(1-oxo-3,4-dihydro-(2H)-napht-6-yl)acetyl-4,5,6,7-tetrahydrothieno [3,2-c] pyridine hydrochloride] yielded an ED50 [1] of 0.023 mg/kg and an ED50 [2] of 0.086 mg/kg.

In the case of O=C1CCCc2cc(CC(=O)N3CCc4sccc4C3CN3CCCCC3)ccc21 (stereo not shown) [Example 4, 4-(piperidin-1-yl)methyl-5-(1-oxo-3,4-dihydro-(2H)-napht-6-Yl)acetyl-4,5,6,7-tetrahydrothieno [3,2-c]pyridine hydrochloride hemihydrate], the ED50 [1] is reported as 0.017 mg/kg and the ED50 [2] is reported as 0.174 mg/kg.
